The source of these data is patent US20240199676A1, “ANTIVIRAL COMPOUNDS AND METHODS OF MAKING AND USING THE SAME” (Gilead Sciences, Inc., priority 2022, published 2024).

Data set [1] concerns Human Rhinovirus 1B (HRV1B) in H1-HeLa cells. The data set can be described thus: H1-HeLa HRV-CTG 384-well Assay (Ex. Y), HRV1B. The format is cell-based. Conditions: Rhinovirus A, 96 h; H1-HeLa cells, HRV1B MOI 0.5, 4 days, Celltiter-Glo; read-out: EC50 H1-HeLa_HRV1B_HRV-CTG 384-well Assay (per Ex. Y). From the text: (§1) Example Y: H1-HeLa HRV-CTG 384-well Assay
(§2) H1-Hela cell line (ATCC, Manassas, VA, Cat #CRL-1958) was maintained in Dulbecco's […] (DMEM) (Corning, New York, NY, Cat #15-018CM) supplemented with 10% fetal bovine serum (FBS) (Hyclone, Logan, UT, Cat #SH30071-03), and 1× Penicillin-Streptomycin-L-Glutamine (Corning, New York, NY, Cat #30-009-CI). Cells were passaged 2 times per week to maintain sub-confluent densities and were used for experiments at passage 5-30. The Human Rhinovirus 1B (HRV1B) (ATCC, Manassas, VA, Cat #VR-1645) , Human Rhinovirus 14 (HRV14) (ATCC, Manassas, VA, Cat #VR-284), and Human Rhinovirus 16 (HRV16) (ATCC, Manassas, VA, Cat #BR-283) was obtained through ATCC. Viral infection was monitored by determining viability of H1-HeLa cells as described below.
(§3) Test molecules are prepared in 100% DMSO in 384-well polypropylene plates (Greiner, Monroe, NC, Cat #784201) with 8 compounds per plate in grouped replicates of 4 at 10 serially diluted concentrations (1:3). The serially diluted compounds were transferred to low dead volume Echo plates (Labcyte, Sunnyvale, CA, Cat #LP-0200).
(§4) The test compounds were spotted to 384-well assay plates (Greiner, Monroe, NC, Cat#781091) at 200 nL per well using an Echo acoustic dispenser (Labcyte, Sunnyvale, CA). H1-HeLa cells were harvested and suspended in DMEM (supplemented with 2% FBS and 1× Penicillin-Streptomycin-L-Glutamine) and seeded to the pre-spotted assay plates at 5,000 cells per well in 30 μL. HRV1B, HRV14, and HRV16 was diluted in DMEM (supplemented with 2% FBS and 1× Penicillin-Streptomycin-L-Glutamine) at 97.1 million Infectious Units (IU) per mL, 151 million IU per mL and 221 million IU per mL respectively. 10 μL of virus per well was added to the assay plates containing cells and compounds, for an MOI of 0.5, 1.0, and 0.25 respectively. The assay plates were incubated for 4 days at 37° C. and 5% CO2. At the end of incubation, Celltiter-Glo (Promega, Madison, WI, Cat #(Ga7573) was prepared. The assay plates and Celltiter-Glo reagent were equilibrated to room temperature for at least 15 minutes. 40 μL per well of Celltiter-Glo reagent was added and the plates were incubated at room temperature for 15 minutes before reading the luminescence signal on an EnVision multimode plate reader (Perkin Elmer, Waltham, MA). Rupintrivir was used as positive control and DMSO was used as negative control. Values were normalized to the positive and negative controls (as 0% and 100% replication, respectively) and data was fitted using non-linear regression analysis by Gilead's dose response tool. The EC50 value for each compound was defined as the concentration reducing viral replication by 50%.

The nature of data set [2]: GI S9 stability (Ex. Z), rat intestinal S9. Conditions: pooled intestinal S9 fractions; rat intestinal S9, 1.0 mg/mL protein, 2 μM substrate, pH 7.4; read-out: GIS9 Rat T½ (per Ex. Z). Format: in vitro ADME. The protocol: Example Z: GI S9 stability data:
Stock solutions of test compounds in dimethyl sulfoxide (DMSO) having a final concentration of 10 mM were prepared and used in all experiments. Sekisui XenoTech (Kansas City, KS) provided pooled intestinal S9 fractions. All other chemicals were purchased from Sigma-Aldrich (St. Louis, MO) or VWR (West Chester, PA). Internal Standard/Quench (IS/Q) used to stop reactions was 100 nM labetalol in (by volume) methanol (10%) and acetonitrile (90%).
Stability in Intestinal S9 Fractions: Duplicate aliquots of test compound or positive control substrate were added to S9 stock diluted with phosphate buffered saline (137 mM NaCl, 2.7 mM KCl, 10 mM phosphate buffer), pH 7.4, to obtain a protein concentration of 1.0 mg/mL. The metabolic reactions were initiated by the addition of the substrates to the S9 reaction mixture to a final concentration of 2 μM. At 0, 10, 20, 30, 60 and 120 min, 25 μL aliquots of the reaction mixture were transferred to plates containing 225 μl of IS/Q solution. After quenching, the plates were centrifuged at 3000×g for 30 minutes. 150 μL aliquots of each supernatant were dried down then reconstituted with 300 μL water. Aliquots (10 μL) of the prepared samples were analyzed on a Thermo Q-Exactive mass spectrometer as described below.
Liquid Chromatography—Mass Spectrometry: Quantification of test compounds and control substrate was performed by analyte/internal standard peak area ratio (PAR) values measured on a Thermo Q-Exactive mass spectrometer coupled to a Dionex UltiMate 3000 HPLC with a Leap Technologies HTC PAL autosampler. The column used for analysis was a Waters Acquity BEH C18 (1.7 μm particle size, 2.1×50 mm). Mobile phase A consisted of 0.1% (v/v) formic acid in water. Mobile phase B consisted of 0.1% (v/v) formic acid in acetonitrile. Elution of analytes was achieved by a series of linear gradients varying the proportions of A and B. The mass spectrometer was calibrated on a weekly basis and mass tolerance of 5 ppm was used.
Metabolic stabilities in S9 fractions were determined by measuring the rates of disappearance of test compound and positive control substrate.
Data (% of substrate remaining) were plotted on a semi-log scale and fitted using an exponential decline model:
Where Ct—% of substrate remaining at time=t; C0—% of substrate remaining at time=0; t—time; T½—half-life The Half-life (T½) is determined by the following equation: […]
Assuming a first-order reaction, the slope (k) is extrapolated from the aforementioned plotted data.

Data set [3] relates to Human Rhinovirus 16 (HRV16) in H1-HeLa cells. Description: H1-HeLa HRV-CTG 384-well Assay (Ex. Y), HRV16. The format is cell-based. Conditions: Rhinovirus A, 96 h; H1-HeLa cells, HRV16 MOI 0.25, 4 days, Celltiter-Glo; read-out: EC50 H1-HeLa_HRV16_HRV-CTG 384-well Assay (per Ex. Y).
From the text: as §1, §2, §3, §4
A general note: In ATP-based viability assays light output follows the ATP content of the culture.

In data set [4] the test system is Human Rhinovirus 14 (HRV14) in H1-HeLa cells. Description: H1-HeLa HRV-CTG 384-well Assay (Ex. Y), HRV14. Conditions: Rhinovirus B, 96 h; H1-HeLa cells, HRV14 MOI 1.0, 4 days, Celltiter-Glo; read-out: EC50 H1-HeLa_HRV14_HRV-CTG 384-well Assay (per Ex Y). Format: cell-based.
From the text: as §1, §2, §3, §4

Consider `CC(C)[C@H](N)C(=O)OC[C@@]1(C#N)O[C@@H](c2ccc3c(N)ncnn23)[C@H](O)[C@@H]1O` [Compound 12, ((2R,3S,4R,5S)-5-(4-aminopyrrolo[2,1-f][1,2,4]triazin-7-yl)-2-cyano-3,4-dihydroxytetrahydrofuran-2-yl)methyl L-valinate], for which the EC50 (usually the concentration giving half of the maximal effect) in data set [1] was 6.5 µM; in data set [3], 8.82 µM; in data set [4], 6 µM. Besides, in data set [2], the half-life at 2 μM was determined as 9 min.
Regarding `CCCC(=O)OC[C@@]1(C#N)O[C@@H](c2ccc3c(N)ncnn23)[C@H](O)[C@@H]1O` [Compound 6, ((2R,3S,4R,5S)-5-(4-aminopyrrolo[2,1-f][1,2,4]triazin-7-yl)-2-cyano-3,4-dihydroxytetrahydrofuran-2-yl)methyl butyrate], the EC50 in data set [1] was 4.11 µM; in data set [3] it was 8.23 µM; in data set [4], 7.86 µM. In addition, the half-life at 2 μM in data set [2] is 4 min.
The corresponding values for `CC(C)C(=O)OC[C@@]1(C#N)O[C@@H](c2ccc3c(N)ncnn23)[C@H](OC(=O)C(C)C)[C@@H]1OC(=O)C(C)C` [Compound 20, (2R,3S,4S,5S)-5-(4-aminopyrrolo[2,1-f][1,2,4]triazin-7-yl)-2-cyano-2-((isobutyryloxy)methyl)tetrahydrofuran-3,4-diyl bis(2-methylpropanoate)] are 9.63 µM, 50 µM, 12.8 µM and 2 min.
Regarding `CC1(C)CC(C(=O)OC[C@@]2(C#N)O[C@@H](c3ccc4c(N)ncnn34)[C@H](O)[C@@H]2O)C1` [Compound 17, ((2R,3S,4R,5S)-5-(4-aminopyrrolo[2,1-f][1,2,4]triazin-7-yl)-2-cyano-3,4-dihydroxytetrahydrofuran-2-yl)methyl 3,3-dimethylcyclobutane-1-carboxylate], the EC50 in data set [1] was 3.2 µM; in data set [3] it was 7.57 µM; in data set [4], 7.83 µM. For the same compound, the half-life at 2 μM in data set [2] came to 3 min.
The corresponding values for `N#C[C@]1(COC(=O)C2CC3(CCC3)C2)O[C@@H](c2ccc3c(N)ncnn23)[C@H](O)[C@@H]1O` [Compound 32, ((2R,3S,4R,5S)-5-(4-aminopyrrolo[2,1-f][1,2,4]triazin-7-yl)-2-cyano-3,4-dihydroxytetrahydrofuran-2-yl)methyl spiro[3.3]heptane-2-carboxylate] are 3.18 µM, 4.56 µM, 5.14 µM and 2 min.
The corresponding values for `N#C[C@]1(COC(=O)c2ccccc2)O[C@@H](c2ccc3c(N)ncnn23)[C@H](O)[C@@H]1O` [Compound 2, ((2R,3S,4R,5S)-5-(4-aminopyrrolo[2,1-f][1,2,4]triazin-7-yl)-2-cyano-3,4-dihydroxytetrahydrofuran-2-yl)methyl benzoate] are 9.6 µM, 28.3 µM, 23.9 µM and 8 min.
For `CC(C)C(=O)Nc1ncnn2c([C@@H]3O[C@](C#N)(CO)[C@@H](O)[C@H]3O)ccc12` [Compound 30, N-(7-((2S,3R,4S,5R)-5-cyano-3,4-dihydroxy-5-(hydroxymethyl)tetrahydrofuran-2-yl)pyrrolo[2,1-f][1,2,4]triazin-4-yl)isobutyramide], the values for the EC50 in data set [1], in data set [3] and in data set [4] were 27.5 µM, 50 µM and 36.2 µM, respectively. In addition, the half-life at 2 μM in data set [2] turned out to be 789 min.
With `CCC(CC)C(=O)OC[C@@]1(C#N)O[C@@H](c2ccc3c(N)ncnn23)[C@H](O)[C@@H]1O` [Compound 9, ((2R,3S,4R,5S)-5-(4-aminopyrrolo[2,1-f][1,2,4]triazin-7-yl)-2-cyano-3,4-dihydroxytetrahydrofuran-2-yl)methyl 2-ethylbutanoate], the EC50 in data set [1] came to 21.6 µM; in data set [3] it was 35.1 µM; in data set [4], 15.5 µM. For the same compound, the half-life at 2 μM in data set [2] worked out at 23 min.
